Reference: article PMC9198545, “Pharmacokinetics and Pharmacodynamics of Fungal Defensin NZX Against Staphylococcus aureus-Induced Mouse Peritonitis Model” (Frontiers in Microbiology, 2022)
Where a SMILES comes first, the peptide text is derived from it. Bridges are numbered along the chain shown (N, C = ends).

Assays:
[1] = Stability in mouse serum by RP-HPLC; assay type: in vitro ADME; details: 25% mouse serum spiked with 100 μg/ml NZX, 37°C, peak area ratio to initial time, read-out: peptide remaining intact
Experimental: The stability of NZX in the mouse serum was determined when placed at 37°C (Wang et al., [2020]). The stock mixture from 25% serum was spiked with 100 μg/ml NZX and vortexed well. The mixtures were incubated at 37°C. At 0, 4, 8, 12, and 24 h, samples were taken out, extracted, and analyzed by reverse-phase high-performance liquid chromatography (RP-HPLC). The results were expressed as the ratio of the peak area of the peptide at various times to that of the initial incubation time.

S. aureus E48 = test: PK/PD index determination, dose fractionation, sigmoidal Emax model; assay type: in vivo, mouse
Experimental: A dose fractionation study was applied to determine the PK/PD parameters of ƒAUC/MIC, ƒCmax/MIC, and ƒT% > MIC, and those parameters were predictive of efficacies for NZX against S. aureus E48. […] The correlations between efficacies and each PK/PD index were analyzed by non-linear least-squares regression based on the sigmoidal Emax model (Hill's equation) (Yu et al., [2016]). Hill's equation was defined as follows:
E =[…] × Ce^N/EC50N + Ce^N
where E is the observed antibacterial effect, which describes the change of log10 CFU/ml in the peritoneal fluid after 24 h of NZX treatment compared to the colony counts at the start of therapy. Emax is the change of log10 CFU/ml in the peritoneal fluid after 24 h of NZX treatment when the maximum antibacterial effect has been reached. E0 is the change of log10 CFU/ml in the peritoneal fluid between initial therapy and after 24 h therapy in untreated control animals. Ce is defined as the three PK/PD parameters (ƒAUC/MIC ratio, ƒCmax/MIC ratio, and ƒT % > MIC). EC50 is the value of the PK/PD parameter that is required to achieve 50% of the maximum antibacterial effect. N is the steepness of the fitted concentration-response curve. The coefficient of determination (R^2) between efficacy and the PK/PD parameters was used for determining the goodness of fit of the curves. In addition, the parameters required to achieve bacterial stasis (Cs), 1 log10 kill, and 2 log10 kill were calculated interpolation or extrapolation based on Hill's equation.

[2] = Serum protein binding by ultrafiltration; assay type: in vitro ADME, mouse; details: murine serum, ultrafiltration with Centrifree Filters, ultrafiltrate by HPLC
Experimental: (§1) The 6-week-old, specific-pathogen-free, female ICR mice (starting weight, 23 to 27 g) were purchased from Beijing Vital River Laboratory Animal Technology Co., Ltd (Beijing, China). The animals were acclimatized for 2 to 3 days before the experiment. The pharmacokinetics of NZX was evaluated in uninfected female ICR mice that received a single tail vein NZX dose of 5, 10, or 20 mg/kg, respectively. After NZX administration, blood samples were collected by orbital venous from five mice per time point at 0.083 to 2 h intervals over 6 h. After centrifugation at 4,000 rpm for 20 min at 4°C, the serum was immediately separated and frozen at −80°C until analysis. Analyses of total serum concentrations of NZX were conducted by a microbiologic assay using S. aureus ATCC 6538p (CICC 10307) as the test strain (Andes et al., [2009]). […] The protein binding of NZX in serum was measured by the ultrafiltration method using Centrifree Filters (Merck Millipore Ltd., Product code: 4104), according to previously described methods by Brinch et al. ([2009]). The concentration of NZX in the ultrafiltrate was determined by HPLC methods.

[3] = Pharmacokinetics in non-infected mice, single tail vein dose; assay type: in vivo, mouse; details: for T1/2, terminal elimination half-life / AUC, area under concentration-time curves / Cmax, peak concentration / MRT, mean residence time / Vd, apparent distribution volume: free-serum NZX; for T1/2, terminal elimination half-life: non-infected female ICR mice, microbiologic assay, non-compartment model; for AUC, area under concentration-time curves / Cmax, peak concentration / MRT, mean residence time / Vd, apparent distribution volume: non-infected mice
Experimental: as §1
The pharmacokinetic parameters of NZX in the serum were analyzed using a non-compartment model by WinNonlin software (version 8.1; Pharsight, USA). GraphPad Prism (version 9.0.1) was used for all statistical analyses. One-way ANOVA followed by Dunnett's test was performed to compare the difference between groups. A P-value <0.05 was considered as the significant difference. Kaplan Meier analysis was conducted for the survival curve; log-rank (Mantel-Cox) test analyses were used to compare the survival rate difference.

[4] = 5 mg/kg, 1 dose in 24 h, total dose 0.125 mg
[5] = 5 mg/kg, 2 doses in 24 h, total dose 0.25 mg
[6] = 10 mg/kg, 1 dose in 24 h, total dose 0.25 mg
[7] = 10 mg/kg, 2 doses in 24 h, total dose 0.5 mg
[8] = 20 mg/kg, 1 dose in 24 h, total dose 0.5 mg
[9] = 20 mg/kg, 2 doses in 24 h, total dose 1 mg
[10] = free NZX in serum, tail vein 5, 10, 20 mg/kg, range over doses

## CC[C@H](C)[C@@H]1NC(=O)[C@H](CO)NC(=O)[C@H](CCCCN)NC(=O)[C@@H]2CSSC[C@@H](C(=O)N[C@@H](Cc3ccc(O)cc3)C(=O)O)NC(=O)[C@H](CCCCN)NC(=O)[C@@H]3CSSC[C@H](NC(=O)[C@H](CCC(N)=O)NC(=O)[C@H]([C@@H](C)CC)NC(=O)[C@H](CC(=O)O)NC(=O)[C@H](CC(=O)O)NC(=O)[C@H](CCC(=O)O)NC(=O)[C@H](CO)NC(=O)[C@H](Cc4c[nH]c5ccccc45)NC(=O)[C@@H]4CCCN4C(=O)CNC(=O)[C@H](CC(N)=O)NC(=O)[C@@H](NC(=O)CNC(=O)[C@H](Cc4ccccc4)NC(=O)CN)CSSC[C@H](NC(=O)[C@H](Cc4ccc(O)cc4)NC(=O)CNC(=O)CNC(=O)[C@H](CCCCN)NC(=O)[C@H](Cc4ccc(O)cc4)NC(=O)CNC(=O)[C@H](CCCCN)NC1=O)C(=O)N[C@@H](C)C(=O)N[C@@H](CCCNC(=N)N)C(=O)NCC(=O)NCC(=O)N[C@@H](Cc1ccccc1)C(=O)N[C@@H](C(C)C)C(=O)N3)C(=O)N[C@@H](Cc1c[nH]cn1)C(=O)N[C@@H](CC(N)=O)C(=O)N[C@@H](Cc1c[nH]cn1)C(=O)N2 [NZX] (H-GFGCNGPWSEDDIQCHNHCKSIKGYKGGYCARGGFVCKCY-OH; disulfide 4-30, 15-37, 19-39)
[1]
  remaining at 24 h, 100 μg/ml: 97%
S. aureus E48; [4]
  fAUC/MIC: 1.11
  fT > MIC: 0.33 h
S. aureus E48; [5]
  fAUC/MIC: 2.22
  fT > MIC: 0.67 h
S. aureus E48; [6]
  fAUC/MIC: 3.54
  fT > MIC: 0.94 h
S. aureus E48; [7]
  fAUC/MIC: 7.08
  fT > MIC: 1.88 h
S. aureus E48; [8]
  fAUC/MIC: 8.89
  fT > MIC: 2.05 h
S. aureus E48; [9]
  fAUC/MIC: 17.79
  fT > MIC: 4.09 h
[2]
  Protein binding: 89.25%
[3]; after intravenous administration, 5, 10, 20 mg/kg
  time at which peak concentrations (Cmax) were observed: 5 min
[3]; [10]
  Cmax over the three dose levels: 2850 to 20550 ng/mL
  T1/2 over the three dose levels: 19.2 to 30 min
  Vd over the three dose levels: 1.4691 to 2.0739 L/kg
[3]; single intravenous 5 mg/kg, five mice per time point
  T1/2, terminal elimination half-life: 19.2 min
[3]; single intravenous 5 mg/kg
  AUC, area under concentration-time curves: 1110 ng·h/mL
  Cmax, peak concentration: 2850 ng/mL
  MRT, mean residence time: 19.2 min
  Vd, apparent distribution volume: 2.0739 L/kg
[3]; single intravenous 10 mg/kg
  T1/2, terminal elimination half-life: 30 min
  AUC, area under concentration-time curves: 3540 ng·h/mL
  Cmax, peak concentration: 6530 ng/mL
  MRT, mean residence time: 38.4 min
  Vd, apparent distribution volume: 2.04541 L/kg
[3]; single intravenous 20 mg/kg
  T1/2, terminal elimination half-life: 27 min
  AUC, area under concentration-time curves: 8890 ng·h/mL
  Cmax, peak concentration: 20550 ng/mL
  MRT, mean residence time: 33.6 min
  Vd, apparent distribution volume: 1.4691 L/kg
